“Also recorded” adds a separate entry of the source.
How the values were obtained:
Assay type in all cases: physicochemical
[1] = 1-week stability assessment (40 °C/75% RH, 80 °C, ambient light; XRPD, HPLC purity)
Protocol: XRPD analysis was carried out on a sample of 5 g of CHP Hydrate. The sample was weighed in a glass vial, and 6 mL of a 90:10 ethanol/water mixture was added to make a slurry. The mixture was then agitated for approximately 24 hours at ambient temperature and then analyzed by XRPD. […] XPRD analysis was carried out to assess any change in the form of the material.

[2] = Variable temperature and humidity XRPD (VT-/VH-XRPD)
Protocol: VT-/VH-XRPD analysis was carried out on a Philips X'Pert ProMultipurpose diffractometer equipped with a temperature and humidity chamber. The samples were scanned between 4 and 35.99° 2θ using Cu K radiation (α1λ=1.54060 Å; α2=1.54443 Å; β=1.39225 Å; α1:α2 ratio=0.5) running in Bragg-Brentano geometry (step size 0.008° 2θ) using 40 kV/40 mA generator settings. Measurements were performed at each step of the humidity profile below:
Program: 40% RH/ambient temperature—initial scan
• 0% RH/ambient temperature—initial scan, 1-hour hold, scan • 0% RH/80° C.—initial scan, 20-minute hold, scan • 0% RH/80° C.—initial scan, 80-minute hold, scan 11. High Performance Liquid Chromatography-Ultraviolet Detection (HPLC-UV) Instrument: Dionex Ultimate 3000 Column: LC/168 X-Bridge Phenyl Column (150 mm×4.6 mm×3.5 μm) Column Temperature: 30° C. Autosampler Temperature: 5° C. UV wavelength: 220 nm Injection Volume: 5 μL Flow Rate: 1 ml/min Mobile Phase A: 10 mM Ammonium acetate Mobile Phase B: Acetonitrile Diluent: 0.1% TFA in water Gradient program: […]

[3] = Solution state chemical stability in water/acetone and EtOH/water/MtBE (HPLC purity); conditions: water/acetone and EtOH/H2O/MtBE, 50 °C for 20 h
Protocol: Solution state chemical stability of the compound was studied in different solvent systems at different temperatures (Table 4). The solution was held at 50° C. and 80° C., and purity of the solution was tracked. The compound was generally stable for at least 20 hours.

[4] = GMP stability study of CHP anhydrate and CHP hydrate under accelerated conditions (total impurities); conditions: for Growth of total Impurities: 40 °C/75% RH
Protocol: CHP anhydrate (Pattern 1) and hydrate (Pattern 2) compounds were manufactured under GMP conditions. A stability study for the CHP anhydrate compound was conducted under ccelerated conditions (40±5° C./75±5% RH) for six months and room temperature conditions (25±5° C./60±5% RH) for 12 months. A further stability study for the CHP hydrate compound was conducted under accelerated conditions (40±5° C./75±5% RH) for 6 months (Table 18).

[5] = Solubility of CHP hydrate (Pattern 2) in EtOH/water/MtBE; conditions: organic solvent or mixture

XRPD form after storage ([1]; 7 days at 40 °C/75% RH): No change in form
XRPD form after storage ([1]; 7 days at 40 °C/75% RH, listed as pattern 2): remain as pattern 2
XRPD form after storage ([1]; 7 days at 40 °C/75% RH, listed as pattern 2 CHP): remained as pattern 2
XRPD form after storage ([1]; 7 days at 80 °C): convert to pattern 1
XRPD form after storage ([1]; 7 days at 80 °C, listed as pattern 2): dehydration from pattern 2 to pattern 1
XRPD form after storage ([1]; 7 days at 80 °C, listed as pattern 2 CHP): converted to pattern 1
XRPD form after storage ([1]; 7 days in ambient light): No change in form
XRPD form after storage ([1]; 7 days in ambient light, listed as pattern 2): remain as pattern 2
XRPD form after storage ([1]; 7 days in ambient light, listed as pattern 2 CHP): remained as pattern 2
VT/VH-XRPD Identity ([2]; Run 1: 40% RH, ambient temperature, listed as CHP Pattern 2): Pattern 2
VT/VH-XRPD Identity ([2]; Run 2: 0% RH, ambient temperature, 1-hour hold, listed as CHP Pattern 2): Pattern 2
VT/VH-XRPD Identity ([2]; Run 2: 0% RH, ambient temperature, 1-hour hold, listed as CHP pattern 2): Pattern 2 input material remained
VT/VH-XRPD Identity ([2]; Run 3: 0% RH, 80 °C, 20-minute hold, listed as CHP Pattern 2): Pattern 1
VT/VH-XRPD Identity ([2]; Run 4: 0% RH, 80 °C, 80-minute hold): pure Pattern 1 remained
VT/VH-XRPD Identity ([2]; Run 4: 0% RH, 80 °C, 80-minute hold, listed as CHP Pattern 2): Pattern 1
VT/VH-XRPD Identity ([2]; Run 4: 0% RH, 80 °C, 80-minute hold, listed as CHP pattern 2): Pure pattern 1 remained
Chemical stability under both crystallization conditions [3]: stable
Growth of total Impurities ([4]; 0M): 0%
Growth of total Impurities ([4]; 1M): 0%
Growth of total Impurities ([4]; 3M, listed as CHP hydrate (pattern 2)): 0.00%
Growth of total Impurities ([4]; 6M, listed as CHP hydrate (pattern 2)): 0.05%
Quality changes during stability study ([4]; accelerated conditions for 6 months): no significant quality changes
solubility ([5]; (EtOH/water = 9/1)/MtBE 3/0 (v/v), 5 °C): 121 mg/mL
solubility ([5]; (EtOH/water = 9/1)/MtBE 3/0 (v/v), 50 °C): > 200 mg/mL
solubility ([5]; (EtOH/water = 9/1)/MtBE 3/1 (v/v), 5 °C): 59 mg/mL
solubility ([5]; (EtOH/water = 9/1)/MtBE 3/1 (v/v), 50 °C): > 200 mg/mL
solubility ([5]; (EtOH/water = 9/1)/MtBE 3/3 (v/v), 5 °C): 30 mg/mL
solubility ([5]; (EtOH/water = 9/1)/MtBE 3/3 (v/v), 50 °C): 101 mg/mL
solubility ([5]; (EtOH/water = 9/1)/MtBE 3/6 (v/v), 5 °C): 6 mg/mL
solubility ([5]; (EtOH/water = 9/1)/MtBE 3/6 (v/v), 50 °C): 24 mg/mL
solubility ([5]; (EtOH/water = 9/1)/MtBE 3/9 (v/v), 5 °C): 6 mg/mL
solubility ([5]; (EtOH/water = 9/1)/MtBE 3/9 (v/v), 50 °C): 17 mg/mL
SMILES: O=C1N[C@@H](Cc2cnc[nH]2)C(=O)N2CCC[C@@H]12 [Pattern 2, Pyrrolo [1,2-a]pyrazine-1,4-dione, hexahydro-3-(1H-imidazol-5-ylmethyl)-, hydrate (1:1), (3S, 8aS)-]
VT/VH-XRPD Identity ([2]; Run 1: 40% RH, ambient temperature): stable; also recorded: Pattern 2 was present
VT/VH-XRPD Identity ([2]; Run 2: 0% RH, ambient temperature, 1-hour hold): remains as Pattern 2; also recorded: Pattern 2 remained
VT/VH-XRPD Identity ([2]; Run 3: 0% RH, 80 °C, 20-minute hold): converted Pattern 2 to Pattern 1; also recorded: pure Pattern 1
VT/VH-XRPD Identity ([2]; Run 3: 0% RH, 80 °C, 20-minute hold, listed as CHP pattern 2): changed form which was assigned as pure pattern 1
